Source: ChEMBL document CHEMBL5329205, “Development of novel quinoline-NO donor hybrids inducing human breast cancer cells apoptosis via inhibition of topoisomerase I” (Bioorg Med Chem, 2023)

Tests used:
MCF7 [1] = assay: Antiproliferative activity against human MCF7 cells assessed as inhibition of cell growth incubated for 48 hrs by MTT assay; format: functional, cell-based; details: MCF7, 48 h
[2] = Cytotoxicity against human MCF-10A cells assessed as cell growth inhibition measured after 48 hrs by MTT assay; format: toxicity, cell-based
HCT-116 = assay: Antiproliferative activity against human HCT-116 cells assessed as inhibition of cell growth incubated for 48 hrs by MTT assay; format: functional, cell-based; details: HCT-116, 48 h
NCI/ADR-RES = assay: Antiproliferative activity against human MCF7ADR cells assessed as inhibition of cell growth measured after 48 hrs by MTT assay; format: functional, cell-based
A549 = assay: Antiproliferative activity against human A549 cells assessed as inhibition of cell growth incubated for 48 hrs by MTT assay; format: functional, cell-based; details: A549, 48 h
[3] = Toxicity in BALB/c mouse xenografted with human MCF7 cells assessed as heart damage at 10 mg/kg, ip administered once every two days for 3 weeks by H and E staining based microscopic analysis; format: organism-based; details: in vivo, 504 h
[4] = Toxicity in BALB/c mouse xenografted with human MCF7 cells assessed as spleen damage at 10 mg/kg, ip administered once every two days for 3 weeks by H and E staining based microscopic analysis; format: organism-based; details: in vivo, 504 h
[5] = Toxicity in BALB/c mouse xenografted with human MCF7 cells assessed as lung damage at 10 mg/kg, ip administered once every two days for 3 weeks by H and E staining based microscopic analysis; format: organism-based; details: in vivo, 504 h
[6] = Toxicity in BALB/c mouse xenografted with human MCF7 cells assessed as kidney damage at 10 mg/kg, ip administered once every two days for 3 weeks by H and E staining based microscopic analysis; format: organism-based; details: in vivo, 504 h
MCF7 [7] = assay: Antitumor activity against human MCF7 cells xenografted in BALB/c nude mouse assessed as reduction in tumor weight at 10 mg/kg, ip administered once every two days for 3 weeks relative to control; format: functional; parameters: scale not given: the % may be the effect or the level left
[8] = Toxicity in BALB/c mouse xenografted with human MCF7 cells assessed as liver damage at 10 mg/kg, ip administered once every two days for 3 weeks by H and E staining based microscopic analysis; format: organism-based; details: in vivo, 504 h

IC50 (MCF7 [1]) [µM] | IC50 (HCT-116) [µM] | IC50 (A549) [µM] | Compound | IC50 at 48 h [2] [µM] | IC50 (NCI/ADR-RES) [µM] | Activity [3] | Activity [4] | Activity [5] | Activity [6] | Activity (MCF7 [7]) [%] | Activity [8]
2.25 | 3.79 | 2.69 | COc1cc(-c2cc(C(=O)OCCOc3no[n+]([O-])c3S(=O)(=O)c3ccccc3)c3ccccc3n2)cc(OC)c1OC | 16.3 | 3.35 |  |  |  |  |  | 
3.16 | 4.35 | 2.71 | COc1cc(-c2cc(C(=O)OCCCCCCOc3no[n+]([O-])c3S(=O)(=O)c3ccccc3)c3ccccc3n2)cc(OC)c1OC | 28.2 | 3.32 |  |  |  |  |  | 
4.22 | 4 | > 5 | O=C(OCCCCOc1no[n+]([O-])c1S(=O)(=O)c1ccccc1)c1ccnc2ccccc12 | 32.2 | 4.28 |  |  |  |  |  | 
 | 0.72 | 0.57 | COc1cccc2c1C(=O)c1c(O)c3c(c(O)c1C2=O)C[C@@](O)(C(=O)CO)C[C@@H]3O[C@H]1C[C@H](N)[C@H](O)[C@H](C)O1 [DOXORUBICIN] |  |  |  |  |  |  |  | 
 |  |  | CC(=O)O[C@H]1C(=O)[C@@]2(C)[C@H]([C@H](OC(=O)c3ccccc3)[C@]3(O)C[C@H](OC(=O)[C@H](O)[C@@H](NC(=O)c4ccccc4)c4ccccc4)C(C)=C1C3(C)C)[C@]1(OC(C)=O)CO[C@@H]1C[C@@H]2O [PACLITAXEL] |  |  | Non-Toxic | Non-Toxic | Non-Toxic | Non-Toxic | 61.18 | Non-Toxic
1.66 | 2.49 | 2.3 | COc1cc(-c2cc(C(=O)OCCCOc3no[n+]([O-])c3S(=O)(=O)c3ccccc3)c3ccccc3n2)cc(OC)c1OC | 30.7 | 1.27 |  |  |  |  |  | 
4.22 | 4.97 | > 5 | O=C(OCCCCCCOc1no[n+]([O-])c1S(=O)(=O)c1ccccc1)c1ccnc2ccccc12 | 34.1 | 5.51 |  |  |  |  |  | 
1.47 | 2.03 | 2.41 | COc1cc(-c2cc(C(=O)OCCCCOc3no[n+]([O-])c3S(=O)(=O)c3ccccc3)c3ccccc3n2)cc(OC)c1OC | 36.5 | 1.09 |  |  |  |  |  | 
14.4 |  |  | O=S(=O)(c1ccccc1)c1c(OCCCCCO)no[n+]1[O-] |  |  |  |  |  |  |  | 
4.6 | > 5 | 3.49 | O=C(OCCOc1no[n+]([O-])c1S(=O)(=O)c1ccccc1)c1ccnc2ccccc12 | 23.2 | 3.32 |  |  |  |  |  | 
> 50 |  |  | COc1cc(-c2cc(C(=O)O)c3ccccc3n2)cc(OC)c1OC |  |  |  |  |  |  |  | 
> 50 | > 50 | > 50 | O=C(O)c1ccnc2ccccc12 | > 50 | > 50 |  |  |  |  |  | 
> 5 | 4.95 | > 5 | O=C(OCCCCCOc1no[n+]([O-])c1S(=O)(=O)c1ccccc1)c1ccnc2ccccc12 | 4.21 | 4.66 |  |  |  |  |  | 
4.23 | 4.37 | > 5 | O=C(OCCCOc1no[n+]([O-])c1S(=O)(=O)c1ccccc1)c1ccnc2ccccc12 | 25.4 | 5.16 |  |  |  |  |  | 
